# Measurements published in patent publication US9040507B2, “Method for treating inflammatory conditions” (Novelmed Therapeutics, Inc., priority 2008, dated 2015).
# “Also recorded” adds a separate entry of the source.
# Legend:
# [1] = test system: rat adjuvant induced arthritis (AIA); test: Prophylactic model of rat adjuvant induced arthritis (AIA); settings: for joint damage (radiographs; CT scan at 2.5 mg/kg): 2.5 mg/kg/day and 500 μg/kg/day IP; for paw inflammation (paw volume), dose effect: 2.5 mg/kg/day and 500 μg/kg/day IP from day 10, left and right paw; for joint histology (H&E staining): limb at study end
# [2] = test system: mouse collagen-induced arthritis (CIA); test: Mouse collagen-induced arthritis (CIA) model; format: in vivo, DBA/J1 mice; settings: dosing from day 18
# Experimental: Male DBA/J1 mice (7-9 weeks old from Jackson Labs, Bar Harbor, Me., USA) were used. The CIA study using mice of same age, strain and source was performed at Boulder BioPATH Inc as described below. Male DBA/J1 mice were shaved at the base of the tail and injected with 0.1 ml emulsion consisting of a 1 to 1 (1 mg/l mg) mixture of type II chicken collagen with Mycobacterium butyricum (Difco) as an adjuvant. Three weeks later, the mice were boosted with another 0.1 ml injection of emulsion at the base of the tail to induce disease. Dosing started at day 18 while the last boost to induce the disease was at day 21. The mice were scored in a blinded manner twice weekly for 3 weeks for signs of arthritis in each paw according to the following scale: clinical signs were evaluated using the following scale: 0=normal; 1=one joint affected or mild diffuse erythema and swelling; 2=two joints affected or mild diffuse erythema and swelling; 3=three joints affected or mild diffuse erythema and swelling; 4=four joint affected or marked diffuse erythema and swelling; and 5=severe erythema and severe swelling. Upon study completion (day 28), mice were killed with CO2.
# [3] = test system: rat adjuvant induced arthritis (AIA), established disease; settings: male rats, 2.5 mg/kg IP every other day from day 16 to day 40, left and right paw; listed as TC 5, 2.5 mg/kg
# [4] = test system: rat adjuvant induced arthritis (AIA); settings: in vivo, ip, 5 mg/kg/day
# [5] = male rats, 5 mg/kg/day IP from day 10 for 14 days, right paw, 5 mg/kg/day
# [6] = male rats, 500 μg/kg/day IP from day 10
# [7] = male rats, 10 mg/kg/day IP from day 10 for 14 days, left and right paw, 10 mg/kg/day
# [8] = male rats, 10 mg/kg/day IP, 10 mg/kg/day
# [9] = male rats, 10 mg/kg/day IP, limbs at study end, 10 mg/kg/day
smiles,measurement,setting,value
"CC/C(=C(\c1ccccc1)c1ccc(OCCN(C)C)cc1)c1ccccc1 [Tamoxifen, (Z)-2-[4-(1,2-diphenylbut-1-enyl)phenoxy]-N,N-dimethyl-ethanamine]",paw inflammation (paw volume),[1]; [5],reduced paw inflammation to control levels similar to those observed for ENBREL
same,paw inflammation (paw volume),"[1]; male rats, 5 mg/kg/day IP from day 10 for 14 days, right paw, listed as tamoxifen, 5 mg/kg/day",can reduce paw inflammation
"c1ccc(-c2ccc(C(c3ccccc3)n3ccnc3)cc2)cc1 (stereo not drawn) [TC5, 1-[phenyl(4-phenylphenyl)methyl]-1H-imidazole]",clinical scoring of the paws (clinical signs of arthritis),"[2]; male mice, 2.5 and 0.25 mg/kg IP",significant prevention of arthritis with inhibition comparable to ENBREL
same,clinical scoring of the paws (clinical signs of arthritis),"[2]; male mice, 2.5 and 0.25 mg/kg IP, listed as TC 5",inhibited clinical signs of the disease comparable to ENBREL treated groups
same,clinical scoring of the paws (clinical signs of arthritis),"[2]; male mice, 2.5 and 0.25 mg/kg IP, listed as bifonazole",can reduce paw inflammation
same,paw inflammation (paw volume),[3],halted the progression of the disease
same,paw inflammation (paw volume),[1]; [6],maximum inhibition observed at the 500 μg/kg/day
same,paw inflammation (paw volume),"[1]; male rats, 500 μg/kg/day IP from day 10, listed as TC 5",also reduced paw inflammation
same,paw inflammation (paw volume),"[1]; male rats, 2.5 mg/kg/day IP from day 10",demonstrated maximal effect similar to ENBREL
same,joint damage (radiographs; CT scan at 2.5 mg/kg),[1]; male rats,effective is preserving the joint damage at both concentrations; also recorded: able to prevent significant joint damage compared to the disease control in a dose dependent manner
same,"paw inflammation (paw volume), dose effect",[1]; male rats,can prevent development and progression of rat adjuvant induced arthritis dose dependently
same,paw inflammation (paw volume),[1]; [7],reduced paw inflammation to control levels similar to those observed for ENBREL
same,paw inflammation (paw volume),"[1]; male rats, 10 mg/kg/day IP from day 10 for 14 days, left and right paw, listed as bifonazole, 10 mg/kg/day",can reduce paw inflammation
same,joint histology (H&E staining),[1]; [8],"minimal inflammation, reduced bone proliferation, preservation of the cartilage, and preservation of the synovial membrane; also recorded: significant preservation of the synovium membrane (white space), significant preservation of the cartilage (space between the 2 blue lines), and minor bone proliferation"
same,"joint damage (radiographs, CT scans)",[1]; [9],prevents joint damage similar to those from ENBREL treated group; also recorded: able to prevent significant joint damage compared to the disease control; also recorded: significant reduction in bone damage in treated animals compared to diseased animals
same,"joint damage (radiographs, CT scans)","[1]; male rats, 10 mg/kg/day IP, limbs at study end, listed as bifonazole, 10 mg/kg/day",can reduce paw inflammation (FIGS. 1-2) and ankle damage
same,joint damage (radiographs; CT scan of 500 μg/Kg oral group),"[1]; male rats, 5, 2.5 and 0.5 mg/kg/day oral gavage",effective in preserving the joint damage at all three concentrations tested; also recorded: significant reduction in bone damage in treated animals compared to diseased animals
same,paw inflammation (paw volume),"[1]; male rats, 5, 2.5 and 0.5 mg/kg/day oral gavage from day 10",not as effective as the IP dosing
same,paw inflammation (paw volume),"[1]; male rats, 5, 2.5 and 0.5 mg/kg/day oral gavage from day 10, listed as TC 5",dose dependent with the highest dose demonstrated maximal effect
"COc1ccc(C(Cl)=C(c2ccc(OC)cc2)c2ccc(OC)cc2)cc1 [TC10, 1,1′,1″-(2-chloroethene-1,1,2-triyl)tris(4-methoxybenzene)]",clinical scoring of the paws (clinical signs of arthritis),"[2]; male mice, 25, 2.5 and 0.25 mg/kg IP",All three doses inhibited clinical signs of the disease; also recorded: significant prevention of arthritis with inhibition greater than ENBREL at all tested doses
same,clinical scoring of the paws (clinical signs of arthritis),"[2]; male mice, 25, 2.5 and 0.25 mg/kg IP, listed as chlorotrianisene",can reduce paw inflammation
same,joint damage (radiographs),"[1]; female rats, 2.5 and 0.5 mg/kg/day IP",effective in preserving the joint damage at both concentrations tested; also recorded: able to prevent significant joint damage compared to the disease control
same,paw inflammation (paw volume),"[1]; female rats, 2.5 and 0.5 mg/kg/day IP from day 10 for 12 days, listed as TC 10",inhibited at both doses
same,paw inflammation (paw volume),"[1]; female rats, 5 and 2.5 mg/kg/day oral",prevented paw inflammation; also recorded: significant reduction in paw inflammation
same,joint damage (radiographs),"[1]; female rats, oral, 5 mg/kg/day",effective in female rates in preserving joint damage
same,paw inflammation (paw volume),[1]; [6],also reduced paw inflammation; also recorded: comparable results to ENBREL
same,paw inflammation (paw volume),"[1]; male rats, 2.5 mg/kg/day IP from day 10, 2.5 mg/kg/day",maximal effect better than ENBREL with nearly complete inhibition of paw inflammation; also recorded: near complete prevention of arthritis bringing paw inflammation near the non-disease control; also recorded: maximum inhibition observed at 2.5 mg/kg/day dose bringing inflammation down to the non-disease control level
same,joint damage (radiographs; CT scan at 2.5 mg/kg),[1]; male rats,effective is preserving the joint damage at both concentrations; also recorded: shows preservation of the joint damage; also recorded: able to prevent significant joint damage at both doses 2.5 mg and 0.5 mg compared to the disease control in a dose dependent manner; also recorded: Joint damage was almost completely prevented with no joint damage
same,"paw inflammation (paw volume), dose effect",[1]; male rats,can prevent development and progression of rat adjuvant induced arthritis dose dependently with maximum effect observed at 2.5 dose
same,paw inflammation (paw volume),[1]; [5],reduced paw inflammation to control levels similar to those observed for ENBREL
same,paw inflammation (paw volume),"[1]; male rats, 5 mg/kg/day IP from day 10 for 14 days, right paw, listed as NM2026, 5 mg/kg/day",able to inhibit paw inflammation similar to the effects of ENBREL
same,paw inflammation (paw volume),"[1]; male rats, 5 mg/kg/day oral gavage from day 10, 5 mg/kg/day",can prevent development and progression of rat adjuvant induced arthritis; also recorded: not as effective as the IP dosing
same,paw inflammation (paw volume),"[1]; male rats, 5 mg/kg/day oral gavage from day 10, listed as TC 10, 5 mg/kg/day",inhibited paw inflammation to ENBREL controls
same,"joint damage (radiographs, CT scans)","[1]; male rats, 5 mg/kg/day oral gavage, 5 mg/kg/day",effectively preserves the joint damage; also recorded: able to prevent significant joint damage compared to the disease control at 5 mg/kg dose tested; also recorded: near complete prevention of joint destruction at 5 mg/kg/day compared to the diseased control
same,paw inflammation (paw volume),[1]; [7],can prevent development and progression of rat adjuvant induced arthritis comparable to the effects of ENBREL; also recorded: able to inhibit paw inflammation similar to the effects of ENBREL
same,paw inflammation (paw volume),"[1]; male rats, 10 mg/kg/day IP from day 10 for 14 days, left and right paw, listed as TC 10, 10 mg/kg/day",reduced paw inflammation to control levels similar to those observed for ENBREL
same,joint histology (H&E staining),[1]; [8],"minimal inflammation, reduced bone proliferation, preservation of the cartilage, and preservation of the synovial membrane; also recorded: significant preservation of the synovium membrane (white space), significant preservation of the cartilage (space between the 2 blue lines), and minor bone proliferation"
same,"joint damage (radiographs, CT scans)",[1]; [9],prevents joint damage similar to those from ENBREL treated group; also recorded: able to prevent significant joint damage compared to the disease control; also recorded: significant reduction in bone damage in treated animals compared to diseased animals
same,weight loss,[4],near negligible
